Source: patent US11584763B2, “Chromenopyridine derivatives as phosphatidylinositol phosphate kinase inhibitors” (HIBERCELL, INC., priority 2017, dated 2023)

Legend:
Format in all cases: biochemical
PIP4K2B = target: T1, PIP4K2B (Homo sapiens, UniProt P78356); test: Trans-FI P kinase assay PIP4K2B (PIP4KtypeIIB inhibition assay); conditions: compounds listed under IC50 bin headings; 100 uM GTP; read-out: Trans-FI P kinase assays: PIP4K2B IC50
T1 construct: made in house; host or cells: E. coli
T1 sequence (P78356 1-416): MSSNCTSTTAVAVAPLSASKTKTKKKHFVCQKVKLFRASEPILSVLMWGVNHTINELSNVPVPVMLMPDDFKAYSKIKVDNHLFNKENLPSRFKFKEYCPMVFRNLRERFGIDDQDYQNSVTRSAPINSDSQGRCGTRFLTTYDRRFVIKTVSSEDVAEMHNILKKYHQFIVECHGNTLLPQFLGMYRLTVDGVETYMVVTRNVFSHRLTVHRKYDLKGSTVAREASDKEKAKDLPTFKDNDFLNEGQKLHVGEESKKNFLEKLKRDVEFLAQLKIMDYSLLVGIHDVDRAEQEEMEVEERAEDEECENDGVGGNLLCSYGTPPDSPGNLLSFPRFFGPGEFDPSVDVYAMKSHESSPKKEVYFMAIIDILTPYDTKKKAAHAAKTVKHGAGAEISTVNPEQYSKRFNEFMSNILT
Method in brief: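 Transcreener FI fluorescence read-out of GDP formed by E. coli-expressed GST-PIP4K2B (5 nM) using 100 uM GTP and 80 uM PI5P with DOPE carrier lipid, pH 7.3, 2 h reaction. Compounds (up to 4.8 uM) were preincubated with enzyme 1 h at 27 C; IC50 fitted from residual activity relative to no-inhibitor control.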

PIP4K 2A [1] = target: T2, PIP4K 2A (Homo sapiens, UniProt P48426); test: Kinase Assay PIP4K2 A (PIP4KtypeIIA inhibition assay); set-up: made in house; host or cells: E. coli; conditions: compounds listed under IC50 bin headings
T2 sequence (P48426 1-406): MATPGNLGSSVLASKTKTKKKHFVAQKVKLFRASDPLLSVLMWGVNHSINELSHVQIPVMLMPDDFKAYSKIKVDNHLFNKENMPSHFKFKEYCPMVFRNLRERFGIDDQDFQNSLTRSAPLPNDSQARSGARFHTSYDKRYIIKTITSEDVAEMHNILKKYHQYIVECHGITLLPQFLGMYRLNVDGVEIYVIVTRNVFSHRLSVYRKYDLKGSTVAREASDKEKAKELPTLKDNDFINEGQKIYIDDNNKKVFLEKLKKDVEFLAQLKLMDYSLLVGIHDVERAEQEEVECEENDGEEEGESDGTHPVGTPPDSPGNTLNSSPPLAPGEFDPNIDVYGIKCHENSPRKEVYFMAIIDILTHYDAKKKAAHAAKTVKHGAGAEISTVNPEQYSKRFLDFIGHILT
Method in brief: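 GST-tagged enzyme from E. coli at 0.5 nM final was preincubated with compound for 1 h at 27 C, then reacted with 10 uM ATP, 80 uM PI5P and DOPE carrier in 50 mM HEPES pH 7.3, 5% DMSO. After 1 h, ADP was measured by ADP-Glo luminescence against a calibration curve. IC50 was fitted from % residual activity.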

PIP4K 2A [2] = target: T2, PIP4K 2A; test: ADP-glo kinase assay PIP4K 2A; set-up: 4 nM PIP4K2A (full length protein, SignalChem); purchased SignalChem; conditions: compounds listed under IC50 bin headings
Method in brief: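 Inhibition was calculated versus DMSO controls from ADP-Glo luminescence and fitted to IC50 over a 10-point, threefold series. Compound was first pre-incubated 15 min at room temperature with PIP4K2A (full-length; 4 nM in the enzyme/substrate mix) and PI(5)P diC8 (100 μM in that mix). The reaction then ran for 1 h after adding 60 μM ATP solution, in MOPS pH 7.2/MgCl2/Tween buffer.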

Compound | IC50 (PIP4K2B) [nM] | IC50 (PIP4K 2A [1]) [nM] | IC50 (PIP4K 2A [2]) [nM]
CC1Oc2cc(N3CCCC3=O)ccc2-c2cnc(Nc3cncc(OC(F)F)c3)cc21 (stereo not drawn) [Example 41, 1-(3-((5-(difluoromethoxy)pyridin-3-yl)amino)-5-methyl-5H-chromeno[4,3-c]pyridin-8-yl)pyrrolidin-2-one] | > 1000 | 1 to 10 | 10 to 100
CC1Oc2cc(N3CCCC3=O)ccc2-c2cnc(Nc3cnc4ccn(S(C)(=O)=O)c4c3)cc21 (stereo not drawn) [Example 57, 1-(5-methyl-3-((1-(methylsulfonyl)-1H-pyrrolo[3,2-b]pyridin-6-yl)amino)-5H-chromeno[4,3-c]pyridin-8-yl)pyrrolidin-2-one] | 10 to 100 | ≤ 1 | 1 to 10
CC1Oc2cc(N3CCCC3=O)ccc2-c2cnc(Nc3cncc(N4CCCC4=O)c3)cc21 (stereo not drawn) [Example 54, 1-(5-methyl-3-((5-(2-oxopyrrolidin-1-yl)pyridin-3-yl)amino)-5H-chromeno[4,3-c]pyridin-8-yl)pyrrolidin-2-one] | 10 to 100 | ≤ 1 | 1 to 10
CC1Oc2cc(N3CCCC3=O)ccc2-c2cnc(Nc3cnc4nccnc4c3)cc21 (stereo not drawn) [Example 63, 1-(5-methyl-3-(pyrido[2,3-b]pyrazin-7-ylamino)-5H-chromeno[4,3-c]pyridin-8-yl)pyrrolidin-2-one] | 100 to 1000 | 1 to 10 | 1 to 10
CC1Oc2cc(N3CCCC3=O)ccc2-c2cnc(Nc3cncc(N4CCN(C)C4=O)c3)cc21 (stereo not drawn) [Example 53, 1-methyl-3-(5-((5-methyl-8-(2-oxopyrrolidin-1-yl)-5H-chromeno[4,3-c]pyridin-3-yl)amino)pyridin-3-yl)imidazolidin-2-one] | 10 to 100 | ≤ 1 | 1 to 10
CC1Oc2cc(C(=O)N(C)C)ccc2-c2cnc(Nc3cccnc3)cc21 (stereo not drawn) [Example 31, N,N,5-trimethyl-3-(pyridin-3-ylamino)-5H-chromeno[4,3-c]pyridine-8-carboxamide] | 100 to 1000 | 1 to 10 | 1 to 10

Now from value to compound:

IC50 (PIP4K2B) [nM] | IC50 (PIP4K 2A [1]) [nM] | IC50 (PIP4K 2A [2]) [nM] | Compound
1 to 10 | ≤ 1 | ≤ 1 | CC(C)C(=O)N1CCOc2ncc(Nc3cc4c(cn3)-c3ccc(N5CCCC5=O)cc3OC4C)cc21 (stereo not drawn) [Example 84, 1-(3-((1-isobutyryl-2,3-dihydro-1H-pyrido[2,3-b][1,4]oxazin-7-yl)amino)-5-methyl-5H-chromeno[4,3-c]pyridin-8-yl)pyrrolidin-2-one]
1 to 10 | ≤ 1 | ≤ 1 | CC1Oc2cc(N3CCCC3=O)ccc2-c2cnc(Nc3cnc4c(c3)N(C(=O)C(C)(C)C)CCO4)cc21 (stereo not drawn) [Example 86, 1-(5-methyl-3-((1-pivaloyl-2,3-dihydro-1H-pyrido[2,3-b][1,4]oxazin-7-yl)amino)-5H-chromeno[4,3-c]pyridin-8-yl)pyrrolidin-2-one]
10 to 100 | ≤ 1 | 1 to 10 | COCCC(=O)N1CCN(c2cncc(Nc3cc4c(cn3)-c3ccc(N5CCCC5=O)cc3OC4(C)C)c2)CC1 [Example 170, 1-(3-((5-(4-(3-methoxypropanoyl)piperazin-1-yl)pyridin-3-yl)amino)-5,5-dimethyl-5H-chromeno[4,3-c]pyridin-8-yl)pyrrolidin-2-one]
1 to 10 | ≤ 1 | ≤ 1 | CC1Oc2cc(C(=O)N(C)C)ccc2-c2cnc(Nc3cnc4c(c3)N(C(=O)C3CC3)CCO4)cc21 (stereo not drawn) [Example 68, 3-((1-(cyclopropanecarbonyl)-2,3-dihydro-1H-pyrido[2,3-b][1,4]oxazin-7-yl)amino)-N,N,5-trimethyl-5H-chromeno[4,3-c]pyridine-8-carboxamide]
1 to 10 | ≤ 1 | ≤ 1 | CC(=O)N1CCOc2ncc(Nc3cc4c(cn3)-c3ccc(C(=O)N(C)C)cc3OC4C)cc21 (stereo not drawn) [Example 70, 3-((1-acetyl-2,3-dihydro-1H-pyrido[2,3-b][1,4]oxazin-7-yl)amino)-N,N,5-trimethyl-5H-chromeno[4,3-c]pyridine-8-carboxamide]
